Reference: PubChem BioAssay (NCI)
Several values for one entry are separate records, joined by “and”; a condition that tells them apart may be missing. Equal values may be shown once.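 Cultured in 96-well plates, cells were exposed to test compound for 48 hours across five concentrations. GI50 is the concentration that inhibits growth by half. TGI denotes the concentration required for complete inhibition of growth.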

Legend:
Assay in all cases: NCI tumour cell line growth inhibition, 48 h
M14 melanoma = test system: M14 melanoma
A498 renal = test system: A498 renal
SK-MEL-28 melanoma = test system: SK-MEL-28 melanoma
T-47D breast = test system: T-47D breast
IGROV1 ovarian = test system: IGROV1 ovarian
MDA-MB-435 = test system: MDA-MB-435
HOP-62 NSCLC = test system: HOP-62 NSCLC
OVCAR-8 ovarian = test system: OVCAR-8 ovarian
SR leukemia = test system: SR leukemia
CCRF-CEM leukemia = test system: CCRF-CEM leukemia

| Compound | TGI (M14 melanoma) | TGI (A498 renal) | TGI (SK-MEL-28 melanoma) | TGI (T-47D breast) | TGI (IGROV1 ovarian) | TGI (MDA-MB-435) | TGI (HOP-62 NSCLC) | TGI (OVCAR-8 ovarian) | TGI (SR leukemia) | TGI (CCRF-CEM leukemia) | GI50 (M14 melanoma) | GI50 (A498 renal) | GI50 (SK-MEL-28 melanoma) | GI50 (T-47D breast) | GI50 (IGROV1 ovarian) | GI50 (MDA-MB-435) | GI50 (HOP-62 NSCLC) | GI50 (OVCAR-8 ovarian) | GI50 (SR leukemia) | GI50 (CCRF-CEM leukemia) |
| --- | --- | --- | --- | --- | --- | --- | --- | --- | --- | --- | --- | --- | --- | --- | --- | --- | --- | --- | --- | --- |
| CC1(C)C(CC(=O)O)CCCC1CC(=O)O (configuration not stated) | > 100 µM | > 100 µM | > 100 µM | > 100 µM | > 100 µM | > 100 µM | > 100 µM | > 100 µM | > 100 µM | > 100 µM |  |  |  |  |  |  |  |  |  |  |
| COc1cc2c(cc1[N+](=O)[O-])C(=O)C(Br)(Br)CCC2 | 5.34 µM | 28.6 µM |  | > 27.2 µM | 2.93 µM | 10.9 µM | 14.4 µM | 5.54 µM | 4.96 µM | 3.35 µM |  |  |  |  |  |  |  |  |  |  |
| O=C(O)c1ccc(/C=N/N=C2c3ccccc3-c3ccccc32)cc1 | > 100 µM | > 100 µM | > 100 µM | > 100 µM | > 100 µM | > 100 µM | > 100 µM | > 100 µM | > 100 µM | > 100 µM |  |  |  |  |  |  |  |  |  |  |
| C[C@]12CC[C@@H]3c4ccc(OC(=O)N(CCCl)CCCl)cc4CC[C@H]3[C@@H]1CC[C@@H]2OP(=O)(O)O | > 100 µM | 42.2 µM | > 100 µM | > 100 µM | > 100 µM | 50.4 µM | > 100 µM | > 100 µM | 33.3 µM | > 78.7 µM | 37.7 µM | 16 µM | 37.3 µM | > 56.4 µM | > 100 µM | 15.6 µM | 63 µM | > 85.6 µM | 9.82 µM | 25.7 µM |
| COC(=O)[C@]12CC[C@@H](C)[C@H](C)[C@@H]1C1=CC[C@@H]3[C@@](C)(CC#N)C4=C(C[C@@]3(C)[C@]1(C)CC2)OC[C@]4(C)C=O | 19.9 µM | 28.7 µM | 21.3 µM | 16.1 µM | > 100 µM | 44.1 µM | 36.6 µM | > 100 µM | 7.44 µM | 16.9 µM | 3.46 µM | 14.7 µM | 4.11 µM | 2.77 µM | 5.28 µM | 4.39 µM | 5 µM | 4.5 µM | 2.56 µM | 3.49 µM |
| C[C@]12CC[C@H]3[C@@H](CC[C@]4(O)C[C@@H](O[C@@H]5O[C@H](CO)[C@@H](O[C@@H]6OC[C@@H](O)[C@H](O)[C@H]6O)[C@H](O)[C@H]5O)CC[C@]34C=O)[C@@]1(O)CC[C@@H]2C1=CC(=O)OC1 | 10.5 µM | 4.5 µM | 15.6 µM | 7.77 µM | 17.6 µM | 6.17 µM | 3 µM | 5.56 µM | 3.27 µM | 5.24 µM | 2.38 µM | 1.23 µM | 2.76 µM | 1.55 µM | 1.84 µM | 1.71 µM | 0.702 µM | 1.62 µM | 1.06 µM | 0.78 µM |
| O=c1/c(=C\c2ccc(Br)cc2)sc2n1C(c1ccc(Br)cc1)C1=C(N=2)c2ccc3ccccc3c2OCC1 (configuration not stated) | > 100 µM | > 100 µM | > 100 µM | > 100 µM | > 100 µM | > 100 µM | > 100 µM | > 100 µM | > 100 µM | > 100 µM | > 100 µM | > 100 µM | > 100 µM | > 100 µM | > 100 µM | > 100 µM | > 100 µM | > 100 µM | 35.4 µM | > 100 µM |
| CCCCOC(=O)c1c(C)[nH]c(/C=C2\N=C(c3ccc[nH]3)C=C2OC)c1C | 2.01 µM | 2.16 µM | 2.8 µM | 1.9 µM | 2.39 µM | 1.74 µM | 8.04 µM | 13.8 µM | 1.47 µM | > 20.4 µM | 0.171 µM | 0.342 µM | 0.509 µM | 0.347 µM | 0.232 µM | 0.123 µM | 0.416 µM | 0.216 µM | 0.0821 µM | 0.0583 µM |
| COC1C(=O)CCC2(CO2)C1(O)C1(C)OC1CC=C(C)C (configuration not stated) | 53.2 µM | > 100 µM | > 100 µM | > 100 µM | > 100 µM | > 100 µM | > 100 µM | > 100 µM | > 100 µM |  |  |  |  |  |  |  |  |  |  |  |
| CCC(C)C1NC(=O)C(NC(=O)C(CC(C)C)N(C)C(=O)[C@@H]2CC(O)CN2C(=O)[C@H](C)O)C(C)OC(=O)[C@H](Cc2ccc(OC)cc2)N(C)C(=O)[C@@H]2CCCN2C(=O)[C@H](CC(C)C)NC(=O)C(C)C(=O)[C@H](C(C)C)OC(=O)CC1O (some centres not stated) | 0.762 µM and 0.202 µM | 4.84 µM and 3.01 µM | 0.467 µM and 0.256 µM | 0.71 µM and 2.07 µM | 1.4 µM and 0.312 µM | 0.705 µM and 0.41 µM | 1.4 µM and 0.394 µM | 4.38 µM and 2.62 µM | > 100 µM | 0.28 µM | 0.0114 µM | 0.325 µM | < 0.01 µM | 0.0137 µM | 0.0191 µM | 0.0365 µM | 0.028 µM | 0.107 µM | 0.0189 µM | 0.0276 µM |
| COc1ncc(-c2ccc3nccc(C#CCCCCC(=O)NO)c3c2)cc1NS(=O)(=O)c1ccc(F)cc1F | 3.62 µM | 0.0962 µM | 2.1 µM | 0.055 µM | 0.559 µM | 4.83 µM | 10 µM | 4.08 µM | 4.24 µM | 5.65 µM | 0.148 µM | 0.0303 µM | 0.0692 µM |  | < 0.0146 µM | 0.132 µM | 0.125 µM | 0.131 µM | 0.146 µM | 0.105 µM |
| Cc1c(C(=O)c2ccccc2)[n+](=O)c2cc(F)c(F)cc2n1[O-] | 3.36 µM | 24.9 µM |  | 20.1 µM | 5.33 µM | 5.43 µM | 3.4 µM | 4.32 µM | 5.24 µM | 2.89 µM | 1.81 µM | 12.1 µM |  | 3.7 µM | 1.32 µM | 2.2 µM | 1.84 µM | 2.02 µM | 0.316 µM | 1.18 µM |
| CN(C)CCCCNc1ccc(NCCCCN(C)C)c2c1C(=O)c1c(O)ccc(O)c1C2=O | 3.2 µM | 26.3 µM | 31.7 µM | 33.2 µM | 3.03 µM | 26.1 µM | 3.13 µM | 2.94 µM | 5.01 µM |  | 1.81 µM | 13.5 µM | 17.8 µM | 18.5 µM | 1.52 µM | 13.3 µM | 1.7 µM | 1.55 µM | 1.72 µM |  |
| Cc1[nH]nc(C(=O)N/N=C/c2ccccc2Cl)c1N=NN(C)C | > 100 µM | > 100 µM | > 100 µM | > 100 µM | > 100 µM | > 100 µM |  | > 100 µM | > 100 µM | > 100 µM |  |  |  |  |  |  |  |  |  |  |
